How the values were obtained:
[1] = test system: guinea-pig ileum (histamine contractions); test: Antispasmodic activity in vitro, contractions caused by histamine; settings: added 15 minutes before spasm-producing agent
Description: (§1) (4) The antispasmodic activity was measured in vitro, on guinea-pig ileum, the contractions of which were caused by histammne (Hist.), acetylcholine (Achol) or barium chloride (BaCl2). The tested products were added to perfusion bath 15 minutes before the spasm-producing agents.
(§2) The dose is given in micograms (μg) per ml of bath causing complete spasm inhibition.

[2] = test system: guinea-pig ileum (acetylcholine contractions); test: Antispasmodic activity in vitro, contractions caused by acetylcholine; settings: added 15 minutes before spasm-producing agent
Description: as §1, §2

femoral artery = test: Vasodilator activity, femoral artery (technique of perfused paw); assay type: in vivo; design: key: O: no action; +: slight activity; ++: effect equal to half the effect of papaverine; +++: effect equal to that of papaverine; ++++: effect higher than that of papaverine; settings: intra-arterial, 30 mg/kg, anaesthetized dog, vs papaverine at same dose
Description: (3) The vasodilator activity was measured at the level of femoral artery on anaesthetized dog (technique of perfused paw). The tested substances were given intra-arterially at the rate of 30 mg/kg. Results are expressed with respect to papaverine tested at the same dose.
++: effect equal to half the effect of papaverine.
+++: effect equal to that of papaverine.
++++: effect higher than that of papaverine.

[3] = Acute toxicity, oral, LD50 (Litchfield and Wilcoxon); settings: mouse, in vivo, fasted male mice, confidence limits p=95% in brackets
Description: (1) The acute toxicity was determined on fasted male mice. The tested substances were orally administered and LD50 values (lethal dose for 50% of animals) were calculated according to the method of Litchfield and Wilcoxon (J. Pharmacol. exp. Ther. 96, 94-113, 1949). These LD50 values are given in mg/kg and also, when possible, with their confidence limits for p=95%.

SMILES | ANTISPASMODIC ACTIVITY HIST. (dose causing complete spasm inhibition) [1] [μg per ml] | ANTISPASMODIC ACTIVITY ACHOL (dose causing complete spasm inhibition) [2] [μg per ml] | VASODILATOR ACTIVITY (femoral artery) | LD50 [3] [mg/kg]
CC(NC1CCCCC1)C(O)c1ccc2c(c1)CCCS2 (stereo not drawn) [No 41] | 8.3 | 8.3 |  | 
Cc1ccc(OCCNC(C)C(O)c2ccc3c(c2)CC(C)S3)cc1 (stereo not drawn) [No 79] | 1.7 | 0.8 |  | 
CC(C)NC(C)C(O)c1ccc2c(c1)CCCCS2 (stereo not drawn) [No 38] | 3.3 | 8.3 | ++ | 240
CC(NCCOc1ccc2ccccc2c1)C(O)c1ccc2c(c1)CCCS2 (stereo not drawn) [No 88] | 1.7 | 1.7 | +++ | > 4000
CC(CCCc1ccccc1)NC(C)C(O)c1ccc2c(c1)CCS2 (stereo not drawn) [No 63] | 0.8 | 0.8 | ++ | 1850
CC(NCCCN1CCCC1=O)C(O)c1ccc2c(c1)CCCS2 (stereo not drawn) [No 77] | 0.8 | 1.7 | 0 | 235
CC(CCCc1ccccc1)NC(C)C(O)c1ccc2c(c1)CC(C)O2 (stereo not drawn) [No 82] | 0.3 | 1.7 | ++ | 
COC(=O)CCCCCCCCCCNC(C)C(O)c1ccc2c(c1)CCCS2 (stereo not drawn) [No 73] | 3.3 | 1.7 | +++ | > 4000
CC1Cc2cc(C(O)C(C)NCCCN3CCCC3)ccc2O1 (stereo not drawn) [No 62] | > 16.7 | > 16.7 | 0 | 885
COC(=O)c1ccc(OCCNC(C)C(O)c2ccc3c(c2)CCCS3)cc1 (stereo not drawn) [No 114] | 0.8 | 3.3 | +++ | > 2000
CCCCCCCCNC(CC)C(O)c1ccc2c(c1)CCCS2 (stereo not drawn) [No 128] |  |  |  | > 4000
CC(NC12CC3CC(CC(C3)C1)C2)C(O)c1ccc2c(c1)CCCS2 (stereo not drawn) [No 52] | 1.7 | 1.7 | +++ | 
CC(=O)Nc1ccc(OCCNC(C)C(O)c2ccc3c(c2)CCCS3)cc1 (stereo not drawn) [No 87] | 8.3 | 16.7 | +++ | 
CCCCOCCCNC(C)C(O)c1ccc2c(c1)CCCS2 (stereo not drawn) [No 50] | 1.7 | 1.7 | +++ | 900
CC(=O)Nc1ccc(OCCNC(C)C(O)c2ccc3c(c2)CCS3)cc1 (stereo not drawn) [No 86] | 1.7 | 16.7 | +++ | 1420
COc1ccc(OCCNC(C)C(O)c2ccc3c(c2)CCCS3)cc1 (stereo not drawn) [No 53] | 3.3 | 1.7 | +++ | > 4000
CC(NCCCCSc1ccccc1)C(O)c1ccc2c(c1)CCS2 (stereo not drawn) [No 31] | 0.17 | 1.7 |  | > 4000
CC(NCCOCc1ccccc1)C(O)c1ccc2c(c1)CCCS2 (stereo not drawn) [No 46] | 8.3 | 3.3 | +++ | 4000

SMILES | ANTISPASMODIC ACTIVITY HIST. (dose causing complete spasm inhibition) [1] [μg per ml] | ANTISPASMODIC ACTIVITY ACHOL (dose causing complete spasm inhibition) [2] [μg per ml] | VASODILATOR ACTIVITY (femoral artery) | LD50 [3] [mg/kg]
CCCCCCCCNC(C)C(O)c1ccc2c(c1)CC(C)CS2 (stereo not drawn) [No 43] | 0.8 | 1.7 | +++ | 3300
CC1CSc2ccc(C(O)C(C)NCCCc3ccccc3)cc2C1 (stereo not drawn) [No 48] | 0.8 | 1.7 |  | > 4000
CC(NC1CC1)C(O)c1ccc2c(c1)CCCS2 (stereo not drawn) [No 51] | 8.3 | 16.7 | ++ | 
CC(NCCCCc1ccccc1)C(O)c1ccc2c(c1)CCS2 (stereo not drawn) [No 7, 1-(2,3-dihydro-5-benzo[b]thienyl)-2-(4-phenylbutylamino)-1-propanol] |  |  |  | 860
CC(CCCc1ccccc1)NC(C)C(O)c1ccc2c(c1)CCC2 (stereo not drawn) [No 173] | 0.8 | 0.8 | ++ | 2600
CC(NCCOc1ccc(NS(C)(=O)=O)cc1)C(O)c1ccc2c(c1)CCS2 (stereo not drawn) [No 103] | 3.3 | 16.7 |  | 
CCCCSCCCNC(C)C(O)c1ccc2c(c1)CCS2 (stereo not drawn) [No 125] | 1.7 |  | ++ | 3400
CC(NCCCCc1ccccc1)C(O)c1ccc2c(c1)CCCCS2 (stereo not drawn) [No 12, 1-(2,3,4,5-tetrahydrobenzo[b]thiepin-7-yl)-2-(4-phenylbutylamino)-1-propanol] |  |  |  | 5200
CC(C(O)c1ccc2c(c1)CCCS2)N1CCC(c2ccccc2)CC1 (stereo not drawn) [No 91] | 0.8 | 1.7 | +++ | 
CCCCCCCCNC(C)C(O)c1ccc2c(c1)SCCO2 (stereo not drawn) [No 121] | 0.8 |  | +++ | 
CCCCSCCCNC(C)C(O)c1ccc2c(c1)SCCO2 (stereo not drawn) [No 124] | 1.7 |  | ++ | 
CCCCCCCCNC(CC)C(O)c1ccc2c(c1)CCS2 (stereo not drawn) [No 119] | 0.3 |  | ++++ | 1800
CC(C(O)c1ccc2c(c1)CCC2)N1CCC(c2ccccc2)CC1 (stereo not drawn) [No 174] | 0.8 |  | +++ | 2150
COc1ccc(OCCNC(C)C(O)c2ccc3c(c2)CC(C)S3)cc1 (stereo not drawn) [No 66] | 1.7 | 3.3 | ++ | 
CC(NCCCN1CCNC1=O)C(O)c1ccc2c(c1)CCCS2 (stereo not drawn) [No 56] | > 16.7 | > 16.7 | ++ | 
CC(NCCCCc1ccccc1)C(OC(=O)C(C)(C)C)c1ccc2c(c1)CCS2 (stereo not drawn) [No 99] | 8.3 | 1.7 |  | 
CCCCCCCCNC(C)C(O)c1ccc2c(c1)CC(C)S2 (stereo not drawn) [No 18] |  |  |  | 3350
CCCCCCCCNC(C)C(OC(=O)CCCCCCC)c1ccc2c(c1)CCCS2 (stereo not drawn) [No 136] |  |  |  | > 4000

From patent publication US4638070A, “Heterocyclic amino-alcohol derivatives” (Continental Pharma, priority 1980, dated 1987)
